Results as given in US20040138199A1, “Benzoxazines and derivatives thereof as therapeutic agents” (priority 2002, published 2004).
pIC50: −log10 of the molar value.

These molecules were tested against T1, p101/p110γ protein (PI3Kγ) (Homo sapiens, UniProt P48736) (assay: PI3Kγ In Vitro Kinase Assay). Conditions: purified recombinant p101/p110γ with G protein β1/γ2 subunits; 20 μM ATP, 25 μM PIP2; 20 minutes at room temperature; radioactive PIP3 readout.
T1 construct: HA; made in house; host or cells: Spodoptera frugiperda (Sf9) cells, baculovirus coinfection
T1 sequence (P48736 whole entry, species assumed): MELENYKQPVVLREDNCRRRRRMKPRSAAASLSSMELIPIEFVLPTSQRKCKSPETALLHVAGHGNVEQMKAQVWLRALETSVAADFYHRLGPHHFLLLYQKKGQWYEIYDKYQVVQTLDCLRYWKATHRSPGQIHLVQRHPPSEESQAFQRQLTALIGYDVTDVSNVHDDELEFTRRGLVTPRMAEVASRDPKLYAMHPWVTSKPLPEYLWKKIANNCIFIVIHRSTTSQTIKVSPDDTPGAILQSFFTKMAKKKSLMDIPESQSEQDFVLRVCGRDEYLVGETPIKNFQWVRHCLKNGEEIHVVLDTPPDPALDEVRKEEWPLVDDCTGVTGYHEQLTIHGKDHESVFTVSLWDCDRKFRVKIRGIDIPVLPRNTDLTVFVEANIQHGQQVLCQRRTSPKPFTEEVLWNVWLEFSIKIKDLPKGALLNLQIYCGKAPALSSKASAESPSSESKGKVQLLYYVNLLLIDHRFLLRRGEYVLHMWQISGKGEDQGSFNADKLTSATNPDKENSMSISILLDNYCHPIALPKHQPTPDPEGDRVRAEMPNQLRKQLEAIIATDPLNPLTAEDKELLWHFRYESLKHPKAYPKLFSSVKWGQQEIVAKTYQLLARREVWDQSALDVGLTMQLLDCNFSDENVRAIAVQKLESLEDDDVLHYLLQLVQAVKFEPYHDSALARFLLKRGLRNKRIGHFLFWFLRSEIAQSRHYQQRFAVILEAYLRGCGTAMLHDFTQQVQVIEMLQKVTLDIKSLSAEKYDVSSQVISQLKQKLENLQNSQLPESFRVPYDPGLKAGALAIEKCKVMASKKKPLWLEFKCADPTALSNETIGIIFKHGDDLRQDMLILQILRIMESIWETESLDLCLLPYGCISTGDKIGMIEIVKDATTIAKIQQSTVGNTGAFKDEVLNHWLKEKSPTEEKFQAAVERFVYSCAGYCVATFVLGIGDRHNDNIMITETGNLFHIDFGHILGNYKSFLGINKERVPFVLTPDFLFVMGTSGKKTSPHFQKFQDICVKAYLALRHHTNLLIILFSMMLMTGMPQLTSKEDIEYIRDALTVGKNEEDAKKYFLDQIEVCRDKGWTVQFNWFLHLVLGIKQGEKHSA
T1 sequence (Q8WYR1 whole entry partner, species assumed): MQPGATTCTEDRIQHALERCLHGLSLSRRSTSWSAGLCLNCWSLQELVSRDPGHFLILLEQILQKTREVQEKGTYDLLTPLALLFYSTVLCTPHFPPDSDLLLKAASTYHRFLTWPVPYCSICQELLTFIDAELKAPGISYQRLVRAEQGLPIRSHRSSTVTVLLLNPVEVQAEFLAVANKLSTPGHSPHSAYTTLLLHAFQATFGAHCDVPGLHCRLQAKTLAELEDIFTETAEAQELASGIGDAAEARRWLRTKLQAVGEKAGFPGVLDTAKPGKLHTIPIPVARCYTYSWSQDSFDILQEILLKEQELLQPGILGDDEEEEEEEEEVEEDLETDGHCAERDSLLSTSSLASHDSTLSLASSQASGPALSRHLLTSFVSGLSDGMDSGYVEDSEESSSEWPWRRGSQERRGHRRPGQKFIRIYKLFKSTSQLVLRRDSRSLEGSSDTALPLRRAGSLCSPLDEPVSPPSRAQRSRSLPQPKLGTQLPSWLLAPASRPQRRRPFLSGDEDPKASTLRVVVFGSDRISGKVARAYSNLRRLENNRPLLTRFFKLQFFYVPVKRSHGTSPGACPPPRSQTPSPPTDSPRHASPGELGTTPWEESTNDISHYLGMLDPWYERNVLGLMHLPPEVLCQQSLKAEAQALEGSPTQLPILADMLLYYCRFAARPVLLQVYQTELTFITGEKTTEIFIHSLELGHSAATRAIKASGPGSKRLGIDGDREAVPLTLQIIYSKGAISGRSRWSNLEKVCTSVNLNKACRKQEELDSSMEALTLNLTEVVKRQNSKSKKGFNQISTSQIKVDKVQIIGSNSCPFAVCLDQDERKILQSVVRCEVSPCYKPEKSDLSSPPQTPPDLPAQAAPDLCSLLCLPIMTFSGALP
Format: biochemical
Experimental: Spodtera frugiperda cells, grown in ESF921 media, were coinfected with baculovirus expressing a glu-tagged […] and baculovirus expressing an HA-tagged p110γ, at a 3:1 ratio of p110 baculovirus to p110γ baculovirus. Sf9 cells were grown to 1×10^7 total cells/mL in 10L bioreactors and harvested 48-72 hours post infection. Samples of infected cells were then tested for expression of p101/p110γ PI3 kinase by immunoprecipitation and Western Blot analysis methods (see below).
To purify PI3Kγ, 4 volumes of room temperature hypotonic lysis buffer (1 mM MgCl2, 1 mM DTT, 5 mM EGTA, 1 mM Pefabloc, 0.5 μM aprotinin, […], 2 μM pepstatin, 5 μM E64, pH 8) per gram of cell paste, was poured onto frozen cell pellets with stirring, then lysed in a nitrogen “bomb” at 400 psi (599HC T316, Parr Instrument Co, Moline, Ill.). NaCl was added to 150 mM, and sodium cholate was added to 1% and mixed for another 45 minutes. The lysates were clarified by centrifugation for 25 minutes at 14,000 rpm. The lysates were then loaded over anti-glu-linked Protein-G Sepaharose beads (Covance Research Products, Richmond, Calif.) using 20 mL resin/50 g cell paste. The column was washed with 15 volumes of wash buffer (1 mM DTT, 0.2 mM EGTA, 1 mM Pefabloc, 0.5 μM aprotinin, 5 μM leupeptin, 2 μM pepstatin, 5 μM E64, 150 mM NaCl, 1% sodium cholate, pH 8). PI3Kγ was eluted with 6 column volumes of wash buffer that contain 100 μg/mL of a peptide that competes for binding of the glu tag. The column fractions with the eluted protein (determined by taking OD280 readings) were collected and dialyzed in 0.2 mM EGTA, 1 mM DTT, 1 mM Pefabloc, 5 μM leupeptin, 0.5% sodium cholate, 150 mM NaCl, and 50% glycerol, pH 8. The fractions were stored at −80° C. until further use.
Spodtera frugiperda cells were coinfected with baculovirus expressing a glu-tagged G protein β1 and baculovirus expressing a […] at a 1:1 ratio of glu-tagged G protein β1 baculovirus to G protein β2 baculovirus. Sf9 cells are grown in 10 L bioreactors and harvested 48-72 hours post infection. Samples of infected cells were tested for G protein β1/β2 expression by Western Blot analysis, as described below. Cell lysates were homogenized and loaded onto a column of glu-tagged beads as in Biological Example 1 and competed off the column with a glu peptide as described in Biological Example 1.
The inhibitory properties of the compounds in Table 1 were assayed in an in vitro PI3K assay. In a 96-well polypropylene plate, each well was spotted with 2 μL of 50 times the desired final concentration of compound in DMSO. Purified recombinant p101/p110γ protein (0.03 μg; ˜2.7 nM) and G protein β1/γ2 subunits (0.09 μg; −57.7 nM) for each reaction was combined in the assay buffer (30 mM HEPES, 100 mM NaCl, 1 mM EGTA, and 1 mM DTT). ATP and [γ-^32P-ATP] (0.09 μCi) were added to this mixture so that the final ATP concentration in the reaction was 20 μM. Lipid micelles were formed by sonicating phosphatidylinositol-4,5-diphosphate (PIP2), phosphatidylethanolamine (PE), and Na-cholate in the assay buffer for 10 minutes, adding MgCL2 and incubating on ice for 20 minutes, for final concentrations of 25 μM PIP2, 300 μM PE, 0.02% Na-cholate, and 10 mM MgCl2 in the reaction. The reactions were started by adding equal volumes lipid and enzyme mixture in a total volume of 50 μL, allowed to run for 20 minutes at room temperature, and stopped with 100 μL 75 mM H3PO4. The lipid product was transferred to a glass fiber filter plate and washed with 75 mM H3PO4 several times. The presence of radioactive lipid product (PIP3) was measured by adding Wallac Optiphase mix to each well and counting in a Wallac 1450 Trilux plate reader (PerkinElmer Life Sciences Inc., Boston, Mass. 02118). The IC50 for each compound tested is reported in μM in Table 1: […]
A pIC50 of 6.84 was found for O=C1NC(=S)SC1=Cc1ccc2c(c1)N(C(=O)c1cc(Cl)cc(Cl)c1)CCO2 [Example 63, 5-[4-(3,5-Dichloro-benzoyl)-3,4-dihydro-2H-1,4-benzoxazin-6-ylmethylene]-2-thioxo-thiazolidin-4-one] in this work.
A pIC50 of 7.74 was found for COC(=O)CCCCCCC(=O)N1CCOc2ccc(C=C3SC(=S)NC3=O)cc21 [Example 44, 8-Oxo-8-[6-(4-oxo-2-thioxo-thiazolidin-5-ylidenemethyl)-2,3-dihydro-1,4-benzoxazin-4-yl]-octanoic acid methyl ester] in this work.
A pIC50 of 7.60 was found for O=C1NC(=S)SC1=Cc1ccc2c(c1)N(C(=O)COc1ccccc1)CCO2 [Example 38, 5-[4-(2-Phenoxy-acetyl)-3,4-dihydro-2H-1,4-benzoxazin-6-ylmethylene]-2-thioxo-thiazolidin-4-one] in this work.
A pIC50 of 7.92 was found for CC1CCCC(C(=O)N2CCOc3ccc(C=C4SC(=S)NC4=O)cc32)C1 (centres unmarked) [Example 85, 5-[4-(3-Methyl-cyclohexanecarbonyl)-3,4-dihydro-2H-benzo[1,4]oxazin-6-ethylene]-2-thioxo-thiazolidin-4-one] in this work.
A pIC50 of 7.19 was found for “5-[4-(Furan-2-carbonyl)-3,4-dihydro-2H-1,4-benzoxazin-6-ylmethylene]-2-thioxo-thiazolidin-4-one [Example 41]” in this work.
A pIC50 of 7.49 was found for O=C1NC(=S)SC1=Cc1ccc2c(c1)N(C(=O)Nc1ccccc1)CCO2 [Example 58, 6-(4-Oxo-2-thioxo-thiazolidin-5-ylidenemethyl)-2,3-dihydro-1,4-benzoxazine-4-carboxylic acid phenylamide] in this work.
A pIC50 of 7.48 was found for O=C1NC(=S)SC1=Cc1ccc2c(c1)N(C(=O)Nc1cc(Cl)cc(Cl)c1)CCO2 [Example 76, 6-(4-Oxo-2-thioxo-thiazolidin-5-ylidenemethyl)-2,3-dihydro-benzo[14]oxazine-4-carboxylic acid (3,5-dichloro-phenyl)-amide] in this work.
A pIC50 of 6.70 was found for Cc1ccc(F)c(C(=O)N2CCOc3ccc(C=C4SC(=S)NC4=O)cc32)c1 [Example 89, 5-[4-(2-Fluoro-5-methyl-benzoyl)-3,4-dihydro-2H-benzo[1,4]oxazin-6-ethylene]-2-thioxo-thiazolidin-4-one] in this work.
A pIC50 of 5.69 was found for CCCCCCc1ccc(C(=O)N2CCOc3ccc(C=C4SC(=S)NC4=O)cc32)cc1 [Example 27, 5-[4-(4-Hexyl-benzoyl)-3,4-dihydro-2H-1,4-benzoxazin-6-ylmethylene]-2-thioxo-thiazolidin-4-one] in this work.
A pIC50 of 8.05 was found for CC(C)C(=O)N1CCOc2ccc(C=C3SC(=S)NC3=O)cc21 [Example 31, 5-(4-Isobutyryl-3,4-dihydro-2H-1,4-benzoxazin-6-ylmethylene)-2-thioxo-thiazolidin-4-one] in this work.
A pIC50 of 6.15 was found for O=C1NC(=S)SC1=Cc1ccc2c(c1)N(C(=O)c1ccc3c(c1)OC(F)(F)O3)CCO2 [Example 48, 5-[4-(2,2-Difluoro-1,3-benzodioxole-5-carbonyl)-3,4-dihydro-2H-1,4-benzoxazin-6-ylmethylene]-2-thioxo-thiazolidin-4-one] in this work.
A pIC50 of 6.00 was found for “5-(9-Cyclopentanecarbonyl-6,7,8,9-tetrahydro-5-oxa-9-aza-benzocyclohepten-2-ylmethylene)-2-thioxo-thiazolidin-4-one [Example 111]” in this work.
A pIC50 of 7.92 was found for CCC(=O)N1CCOc2ccc(C=C3SC(=S)NC3=O)cc21 [Example 93, 4-(4-Propionyl-3,4-dihydro-2H-1,4-benzoxazin-6-ylmethylene)-2-thioxo-thiazolidin-4-one] in this work.
A pIC50 of 6.43 was found for O=C1NC(=S)SC1=Cc1ccc2c(c1)N(C(=O)c1cc(F)cc(F)c1)CCO2 [Example 46, 5-[4-(3,5-Difluoro-benzoyl)-3,4-dihydro-2H-1,4-benzoxazin-6-ylmethylene]-2-thioxo-thiazolidin-4-one] in this work.
A pIC50 of 6.82 was found for O=C1NC(=S)SC1=Cc1ccc2c(c1)N(C(=O)c1cccs1)CCO2 [Example 42, 5-[4-(Thiophene-2-carbonyl)-3,4-dihydro-2H-1,4-benzoxazin-6-ylmethylene]-2-thioxo-thiazolidin-4-one] in this work.
A pIC50 of 8.30 was found for CCCCC(=O)N1CCOc2ccc(C=C3SC(=S)NC3=O)cc21 [Example 96, 5-(4-Pentanoyl-3,4-dihydro-2H-1,4-benzoxazin-6-ylmethylene)-2-thioxo-thiazolidin-4-one] in this work.
A pIC50 of 5.40 was found for O=C1NC(=S)SC1=Cc1ccc2c(c1)N(C(=O)NCCc1cccs1)CCO2 [Example 64, 6-(4-Oxo-2-thioxo-thiazolidin-5-ylidenemethyl)-2,3-!dihydro-1,4-benzoxazine-4-carboxylic acid (2-thiophen-2-yl-ethyl)-amide] in this work.
A pIC50 of 5.78 was found for “5-[9-(2-Benzyloxy-acetyl)-6,7,8,9-tetrahydro-5-oxa-9-aza-benzocyclohepten-2-ylmethylene]-2-thioxo-thiazolidin-4-one [Example 119]” in this work.
A pIC50 of 5.73 was found for O=C1NC(=S)SC1=Cc1ccc2c(c1)N(C(=O)Nc1ccc(Oc3ccccc3)cc1)CCCO2 [Example 118, 2-(4-Oxo-2-thioxo-thiazolidin-5-ylidenemethyl)-7,8-dihydro-6H-5-oxa-9-aza-benzocycloheptene-9-carboxylic acid (4-phenoxy-phenyl)-amide] in this work.
A pIC50 of 8.70 was found for O=C1NC(=S)SC1=Cc1ccc2c(c1)N(C(=O)Nc1ccc(Cl)cc1)CCO2 [Example 77, 6-(4-Oxo-2-thioxo-thiazolidin-5-ylidenemethyl)-2,3-dihydro-benzo[1,4]oxazine-4-carboxylic acid (4-chloro-phenyl)-amide] in this work.
A pIC50 of 7.02 was found for Cc1ccc(NC(=O)N2CCOc3ccc(C=C4SC(=S)NC4=O)cc32)cc1 [Example 57, 6-(4-Oxo-2-thioxo-thiazolidin-5-ylidenemethyl)-2,3-dihydro-1,4-benzoxazine-4-carboxylic acid p-tolylamide] in this work.
A pIC50 of 5.66 was found for COc1cccc(NC(=O)N2CCCOc3ccc(C=C4SC(=S)NC4=O)cc32)c1 [Example 122, 2-(4-Oxo-2-thioxo-thiazolidin-5-ylidenemethyl)-7,8-dihydro-6H-5-oxa-9-aza-benzocycloheptene-9-carboxylic acid (3-methoxy-phenyl)-amide] in this work.
A pIC50 of 7.92 was found for O=C1NC(=S)SC1=Cc1ccc2c(c1)N(C(=O)CSc1ccccc1)CCO2 [Example 40, 5-[4-(2-Phenylsulfanyl-acetyl)-3,4-dihydro-2H-1,4-benzoxazin-6-ylmethylene]-2-thioxo-thiazolidin-4-one] in this work.
A pIC50 of 7.44 was found for O=C1NC(=S)SC1=Cc1ccc2c(c1)N(C(=O)Cc1cccs1)CCO2 [Example 35, 5-[4-(2-Thiophen-2-yl-acetyl)-3,4-dihydro-2H-1,4-benzoxazin-6-ylmethylene]-2-thioxo-thiazolidin-4-one] in this work.
A pIC50 of 7.10 was found for O=C1NC(=S)SC1=Cc1ccc2c(c1)N(C(=O)Nc1ccc(Oc3ccccc3)cc1)CCO2 [Example 66, 6-(4-Oxo-2-thioxo-thiazolidin-5-ylidenemethyl)-2,3-dihydro-1,4-benzoxazine-4-carboxylic acid (4-phenoxy-phenyl)-amide] in this work.
A pIC50 of 7.05 was found for CC1CCCCC1C(=O)N1CCOc2ccc(C=C3SC(=S)NC3=O)cc21 (centres unmarked) [Example 91, 5-[4-(2-Methyl-cyclohexanecarbonyl)-3,4-dihydro-2H-benzo[1,4]oxazin-6-ethylene]-2-thioxo-thiazolidin-4-one] in this work.
